Biological target: T1, NLRP3 (Homo sapiens, UniProt Q96P20)
T1 construct: Seed THP-1 cells (25,000 cells/well) containing 1.0 μg/ml LPS; host or cells: THP-1 cells
T1 sequence (Q96P20 whole entry): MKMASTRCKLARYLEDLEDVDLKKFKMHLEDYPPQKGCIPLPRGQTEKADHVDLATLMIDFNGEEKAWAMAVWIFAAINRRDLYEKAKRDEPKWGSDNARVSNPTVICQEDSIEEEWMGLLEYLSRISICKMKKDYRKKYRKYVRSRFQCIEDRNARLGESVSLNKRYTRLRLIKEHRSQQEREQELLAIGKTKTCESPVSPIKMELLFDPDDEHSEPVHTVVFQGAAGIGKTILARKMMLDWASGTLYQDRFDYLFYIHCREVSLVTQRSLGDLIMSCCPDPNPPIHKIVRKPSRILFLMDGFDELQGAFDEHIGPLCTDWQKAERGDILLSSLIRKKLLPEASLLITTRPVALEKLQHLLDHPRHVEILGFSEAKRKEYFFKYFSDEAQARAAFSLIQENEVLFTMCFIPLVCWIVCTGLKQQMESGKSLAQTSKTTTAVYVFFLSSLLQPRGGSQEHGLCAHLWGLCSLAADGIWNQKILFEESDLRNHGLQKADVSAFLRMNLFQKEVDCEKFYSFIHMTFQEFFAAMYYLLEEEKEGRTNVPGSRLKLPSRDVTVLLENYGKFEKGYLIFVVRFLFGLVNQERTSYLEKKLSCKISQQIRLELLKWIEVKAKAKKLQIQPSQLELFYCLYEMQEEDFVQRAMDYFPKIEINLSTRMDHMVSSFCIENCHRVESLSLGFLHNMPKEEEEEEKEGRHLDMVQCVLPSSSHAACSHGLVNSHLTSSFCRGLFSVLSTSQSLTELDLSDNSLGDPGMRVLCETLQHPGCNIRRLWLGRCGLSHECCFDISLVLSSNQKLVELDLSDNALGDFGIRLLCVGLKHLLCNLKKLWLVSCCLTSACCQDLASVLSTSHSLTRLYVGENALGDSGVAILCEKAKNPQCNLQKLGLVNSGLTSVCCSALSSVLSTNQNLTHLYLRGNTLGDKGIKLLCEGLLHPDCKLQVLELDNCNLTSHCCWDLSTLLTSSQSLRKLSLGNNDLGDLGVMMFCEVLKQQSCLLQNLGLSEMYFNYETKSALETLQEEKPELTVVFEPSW
Test: THP-1 cells pyroptosis assay
Format: cell-based
Conditions: LPS 1.0 μg/ml, nigericin 5 μM, resazurin readout
Text: It is well established that the activation of NLRP3 leads to cell pyroptosis and this feature plays an important part in the manifestation of the clinical disease (Yan-gang Liu et al., Cell Death & Disease, 2017, 8(2), e2579; Alexander Wree et al., Hepatology, 2014, 59(3), 898-910; Alex Baldwin et al., Journal of Medicinal Chemistry, 2016, 59(5), 1691-1710; Ema Ozaki et al., Journal of Inflammation Research, 2015, 8, 15-27; Zhen Xie & Gang Zhao, Neuroimmunology Neuroinflammation, 2014, 1(2), 60-65; Mattia Cocco et al., Journal of Medicinal Chemistry, 2014, 57(24), 10366-10382; T. Satoh et al., Cell Death & Disease, 2013, 4, e644). Therefore, it is anticipated that inhibitors of NLRP3 will block pyroptosis, as well as the release of pro-inflammatory cytokines (e.g. IL-1β) from the cell.
THP-1 cells (ATCC #TIB-202) were grown in RPMI containing L-glutamine (Gibco #11835) supplemented with 1 mM sodium pyruvate (Sigma #S8636) and penicillin (100 units/ml)/streptomycin (0.1 mg/ml) (Sigma #P4333) in 10% Fetal Bovine Serum (FBS) (Sigma #F0804). The cells were routinely passaged and grown to confluency (˜10^6 cells/ml). On the day of the experiment, THP-1 cells were harvested and resuspended into RPMI medium (without FBS). The cells were then counted and viability (>90%) checked by Trypan blue (Sigma #T8154). Appropriate dilutions were made to give a concentration of 625,000 cells/ml. To this diluted cell solution was added LPS (Sigma #L4524) to give a 1 μg/ml Final Assay Concentration (FAC). 40 μl of the final preparation was aliquoted into each well of a 96-well plate. The plate thus prepared was used for compound screening.
The following method step-by-step assay was followed for compound screening. • 1. Seed THP-1 cells (25,000 cells/well) containing 1.0 μg/ml LPS in 40 μl of RPMI medium (without FBS) in 96-well, black walled, clear bottom cell culture plates coated with poly-D-lysine (VWR #734-0317) • 2. Add 5 μl compound (8 points half-log dilution, with 10 μM top dose) or vehicle (DMSO 0.1% FAC) to the appropriate wells • 3. Incubate for 3 hrs at 37° C. in 5% CO2 • 4. Add 5 μl nigericin (Sigma #N7143) (FAC 5 μM) to all wells • 5. Incubate for 1 hr at 37° C. and 5% CO2 • 6. At the end of the incubation period, spin plates at 300×g for 3 mins and remove supernatant • 7. Then add 50 μl of resazurin (Sigma #R7017) (FAC 100 μM resazurin in RPMI medium without FBS) and incubate plates for a further 1-1.5 h at 37° C. and 5% CO2 • 8. Plates were read in an Envision reader at Ex 560 nm and Em 590 nm • 9. IC50 data is fitted to a non-linear regression equation (log inhibitor vs response-variable slope 4-parameters) 96-Well Plate Map
With `O=C(Nc1c2c(cc3c1CCC3)CCC2)NS(=O)(=O)NCCCc1ccccc1` [Example 25] the IC50 was under 10 µM. `Cn1ncc2ccc(NS(=O)(=O)NC(=O)Nc3c4c(cc5c3CCC5)CCC4)cc21` [Example 42, 1-(1,2,3,5,6,7-Hexahydro-s-indacen-4-yl)-3-[(1-methyl-1H-indazol-6-yl)sulfamoyl]urea] gave an IC50 of under 1 µM. Compound `Cc1ccc(OCCNS(=O)(=O)NC(=O)Nc2c3c(cc4c2CCC4)CCC3)cc1` [Example 24] has an IC50 of under 10 µM. Compound `O=C(Nc1c2c(cc3c1CCC3)CCC2)NS(=O)(=O)Nc1ccc2[nH]ccc2c1` [Example 43, 3-(1,2,3,5,6,7-Hexahydro-s-indacen-4-yl)-1-[(1H-indol-5-yl)sulfamoyl]urea] has an IC50 of under 1 µM. Compound `O=C(Nc1c2c(cc3c1CCC3)CCC2)NS(=O)(=O)NCc1ccc(Cl)cc1F` [Example 6] has an IC50 of under 10 µM. For `O=C(Nc1c2c(cc3c1CCC3)CCC2)NS(=O)(=O)N1CCN(CCc2cccs2)CC1` [Example 13], the IC50 was under 10 µM. For `CS(=O)(=O)c1cccc(CNS(=O)(=O)NC(=O)Nc2c3c(cc4c2CCC4)CCC3)c1` [Example 7], the IC50 was under 10 µM. Compound `O=C(Nc1c2c(cc3c1CCC3)CCC2)NS(=O)(=O)NCc1cccs1` [Example 23] has an IC50 of under 10 µM. With `O=C(Nc1c2c(cc3c1CCC3)CCC2)NS(=O)(=O)NCCN1CCc2ccccc21` [Example 40] the IC50 was under 10 µM. For `O=C(Nc1c2c(cc3c1CCC3)CCC2)NS(=O)(=O)N(Cc1ccccc1)Cc1nccs1` [Example 19], the IC50 was under 1 µM. `O=C(Nc1c2c(cc3c1CCC3)CCC2)NS(=O)(=O)N1CCc2ccccc21` [Example 28] showed an IC50 of under 10 µM. Compound `O=C(Nc1c2c(cc3c1CCC3)CCC2)NS(=O)(=O)N(CCN1CCOCC1)Cc1ccco1` [Example 17] has an IC50 of under 50 µM. `Cc1ccc(NS(=O)(=O)NC(=O)Nc2c3c(cc4c2CCC4)CCC3)cc1C#N` [Example 33] showed an IC50 of under 10 µM. `CN(Cc1ccc(F)cc1)S(=O)(=O)NC(=O)Nc1c2c(cc3c1CCC3)CCC2` [Example 32] showed an IC50 of under 10 µM. Compound `CN(c1ccccc1)S(=O)(=O)NC(=O)Nc1c2c(cc3c1CCC3)CCC2` [Example 31] has an IC50 of under 10 µM. With `Cc1ccnc(C)c1NS(=O)(=O)NC(=O)Nc1c2c(cc3c1CCC3)CCC2` [Example 39] the IC50 was under 10 µM. Compound `CCn1c(=O)n(CC)c2cc(NS(=O)(=O)NC(=O)Nc3c4c(cc5c3CCC5)CCC4)c(C)cc21` [Example 34] has an IC50 of under 10 µM. In the case of `Cc1nccn1-c1ccc(NS(=O)(=O)NC(=O)Nc2c3c(cc4c2CCC4)CCC3)cc1` [Example 27], the IC50 is reported as under 10 µM. Work on `O=C(Nc1c2c(cc3c1CCC3)CCC2)NS(=O)(=O)NCCOc1ccccc1Cl` [Example 5] yielded an IC50 of under 10 µM. `CN(Cc1csc(-c2ccccc2)n1)S(=O)(=O)NC(=O)Nc1c2c(cc3c1CCC3)CCC2` [Example 20] gave an IC50 of under 10 µM. `CC(=O)c1cc2c(cc1NS(=O)(=O)NC(=O)Nc1c3c(cc4c1CCC4)CCC3)OCO2` [Example 36] gave an IC50 of under 10 µM. With `CN(C)CCN(Cc1ccsc1)S(=O)(=O)NC(=O)Nc1c2c(cc3c1CCC3)CCC2` [Example 18] the IC50 was under 10 µM. For `Cc1ccccc1OCCNS(=O)(=O)NC(=O)Nc1c2c(cc3c1CCC3)CCC2` [Example 26], the IC50 was under 10 µM. In the case of `O=C(Nc1c2c(cc3c1CCC3)CCC2)NS(=O)(=O)NCc1c(F)cc(F)cc1F` [Example 11], the IC50 is reported as under 10 µM. In the case of `CN(Cc1ccncc1)S(=O)(=O)NC(=O)Nc1c2c(cc3c1CCC3)CCC2` [Example 29], the IC50 is reported as under 10 µM. `COc1cc(C)c(NS(=O)(=O)NC(=O)Nc2c3c(cc4c2CCC4)CCC3)cn1` [Example 35] gave an IC50 of under 1 µM. In the case of `O=C(Nc1c2c(cc3c1CCC3)CCC2)NS(=O)(=O)NCCc1nc(-c2cccnc2)no1` [Example 21], the IC50 is reported as under 10 µM. Work on `O=C(Nc1c2c(cc3c1CCC3)CCC2)NS(=O)(=O)Nc1cccc2c1CCC2` [Example 37] yielded an IC50 of under 10 µM. In the case of `O=C(Nc1c2c(cc3c1CCC3)CCC2)NS(=O)(=O)NCc1ccncc1` [Example 30], the IC50 is reported as under 50 µM. Compound `O=C(Nc1c2c(cc3c1CCC3)CCC2)NS(=O)(=O)NCCc1nccs1` [Example 15] has an IC50 of under 10 µM. Compound `O=C(Nc1c2c(cc3c1CCC3)CCC2)NS(=O)(=O)NCc1ccco1` [Example 14] has an IC50 of under 10 µM. `CCN(C)C1(CNS(=O)(=O)NC(=O)Nc2c3c(cc4c2CCC4)CCC3)CCCCC1` [Example 12] gave an IC50 of under 10 µM.

System: not listed separately
Test: Isothermal titration calorimetry (ITC), Ca^2+ binding
Conditions: MCC950 sodium salt
With `CC(C)(O)c1coc(S(=O)(=O)NC(=O)Nc2c3c(cc4c2CCC4)CCC3)c1` [MCC950] the “binding to Ca^2+ (ITC, FIG. 1)” value was “no binding”.

Biological target: T2, NLRP3 inflammasome (Homo sapiens, UniProt Q96P20)
T2 construct: endogenous in cells; host or cells: HMDM (human monocyte-derived macrophages from buffy coat blood)
T2 sequence (Q96P20 whole entry): as above
Test: Inhibition of IL-1β release, cell based assay using HMDM (NLRP3 inflammasome activation assay)
Conditions: not given
Protocol: The following assays can be used to determine inhibitory activity of test compounds on the NLRP3 inflammasome using common stimuli such as adenosine triphosphate, nigericin, LeuLeu-OMe or monosodium urate crystals (MSU).
To generate HMDM (Human Monocyte Derived Macrophages), human monocytes are isolated from buffy coat blood using Ficoll-Plaque Plus (GE Healthcare) and density centrifugation. CD14^+ cell selection is performed using MACS magnetic beads (Miltenyl Biotec). Isolated CD14^+ monocytes are differentiated in culture for 7 days with 10 ng/ml human CSF-1 (Miltenyl Biotec) in Iscove's modified Dulbecco's medium (IMDM) containing L-glutamine supplemented with 10% FBS and 1% penicillin/streptomycin (Life Technologies) as described by Croker et al 2013 Immunol Cell Biol 91:625. Stably transfected ASC-cerulean macrophages as described by Hett et al. (Nat. Chem. Biol., 9, 398-405, 2013) are cultured in DMEM supplemented with 10% FCS and 1% P/S.
HMDM are seeded at 1×10^5/ml. […]
For ELISA and cell death assays cells are seeded in 96 well plates. Supernatants are removed and analysed using ELISA kits according to the manufacturer's instructions (DuoSet® R&D Systems, ReadySetGo!® eBioscience, BD OptEIA™, or Perkin Elmer AlphaLISA®). Cell death is assessed by measurement of LDH release relative to a 100% cell lysis control using the CytoTox96® non-radioactive cytotoxicity assay (Promega).
In the case of `CC(C)n1ccc(S(=O)(=O)NC(=O)Nn2c3ccccc3c3ccccc32)n1` [Example 4, N-((9H-carbazol-9-yl)carbamoyl)-1-isopropyl-1H-pyrazole-3-sulfonamide], the IC50 is reported as under 10 µM. With `CN1CCN(S(=O)(=O)NC(=O)Nc2c3c(cc4c2CCC4)CCC3)CC1` [Example 2, N-((1,2,3,5,6,7-hexahydro-s-indacen-4-yl)carbamoyl)-4-methylpiperazine-1-sulfonamide] the IC50 was under 1 µM.

Biological target: not listed separately
Test: Isothermal titration calorimetry (ITC), copper complexation of MCC950
Format: binding
Conditions: ITC, CuCl2 titrated into 0.4 mM MCC950Na in water, 25° C.
Protocol: Complex formation between the sodium form of MCC950 and copper chloride was tested and detected by using isothermal titration calorimetry (ITC). MCC950 (also known as CRID3) is a sulphonylurea having the formula: […]
An autoITC 200 (GE life sciences) was used to measure the change in heat induced by Cu^2+-MCC950 interactions and data analysed using the MicroCal Origin version 7.0 software package adapted for auto-ITC data analysis.
Copper chloride (5 or 2.5 mM of CuCl2) dissolved in water (miliQ water; Elga) was titrated into a cell containing 0.4 mM MCC950Na also dissolved in water. The titration consisted of 19×2 μL injections at 25° C. As a control EDTA was used, in free acid form or as a sodium di-salt, at a concentration of 0.4 mM. Experiments were replicated three times and results were averaged. Thermograms and binding isotherms were used to determine the enthalpy (ΔH), binding constants (K), stoichiometry (N), and entropy (TΔS) using a single-site binding model. The change in standard Gibbs free energy (ΔG) was calculated using the Gibbs-Helmholz thermodynamic equation: ΔG=−RTInK, where R is the ideal gas constant (1.985 cal mol^−1K^−1) and T is the temperature (298 K).
For `CC(C)(O)c1coc(S(=O)(=O)NC(=O)Nc2c3c(cc4c2CCC4)CCC3)c1` [MCC950], the “K (binding constant)” value was 5.69 ± 0.3 10^4 M^−1.

Same assay, conditions: MCC950 sodium salt
In the case of `CC(C)(O)c1coc(S(=O)(=O)NC(=O)Nc2c3c(cc4c2CCC4)CCC3)c1` [MCC950], the “binding to Cu^2+ (ITC, FIG. 1)” value is reported as “significant binding”.

System: not given
Test: not given
Conditions: mouse; cited from earlier work
For `CC(C)(O)c1coc(S(=O)(=O)NC(=O)Nc2c3c(cc4c2CCC4)CCC3)c1` [MCC950], the half-life is listed as 3.2 h.
